Molecular target: PARP7 (Homo sapiens (Human), UniProt Q7Z3E1)
Assay: Enzymatic assay for inhibition of PARP7: TR-FRET displacement of biotinylated Probe A from the TIPARP active site
Type: binding
Settings: Table A-1
Summary of the method: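 TR-FRET, ex 320 nm / em 615 and 665 nm. Signal ratio reflects complex formation.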

Sequence of PARP7 (Q7Z3E1 whole entry): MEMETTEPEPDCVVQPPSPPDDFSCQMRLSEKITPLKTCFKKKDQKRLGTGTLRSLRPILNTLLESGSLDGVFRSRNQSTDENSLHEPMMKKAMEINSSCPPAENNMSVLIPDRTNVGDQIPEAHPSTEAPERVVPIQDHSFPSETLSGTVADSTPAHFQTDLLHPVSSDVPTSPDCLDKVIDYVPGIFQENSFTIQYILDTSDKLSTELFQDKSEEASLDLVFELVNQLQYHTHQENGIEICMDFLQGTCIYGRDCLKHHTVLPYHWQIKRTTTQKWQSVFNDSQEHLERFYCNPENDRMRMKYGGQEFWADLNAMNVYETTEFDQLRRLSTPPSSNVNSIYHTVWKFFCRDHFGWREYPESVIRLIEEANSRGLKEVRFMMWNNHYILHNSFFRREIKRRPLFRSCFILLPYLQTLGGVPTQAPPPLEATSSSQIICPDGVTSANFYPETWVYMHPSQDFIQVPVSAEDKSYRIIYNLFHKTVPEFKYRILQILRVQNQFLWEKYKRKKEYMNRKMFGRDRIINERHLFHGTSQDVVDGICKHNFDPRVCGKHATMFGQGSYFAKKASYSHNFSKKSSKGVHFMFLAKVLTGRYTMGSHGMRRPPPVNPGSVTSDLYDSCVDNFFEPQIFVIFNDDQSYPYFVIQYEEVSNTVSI

Row | SMILES | IC50
1 | C[C@@H](COCCC(=O)N1CC[C@H]2[C@@H]1CCN2c1ncc(C(F)(F)F)cn1)Nc1cn[nH]c(=O)c1C(F)(F)F [Example 689, 5-(((S)-1-(3-Oxo-3-((3aS,6aS)-4-(5-(trifluoromethyl)pyrimidin-2-yl)hexahydropyrrolo[3,2-b]pyrrol-1(2H)-yl)propoxy)propan-2-yl)amino)-4-(trifluoromethyl)pyridazin-3(2H)-one] | 0.1 to 1 µM
2 | COC[C@@H](COCCC(=O)N1CCN(c2ncc(C)cn2)CC1)Nc1cn[nH]c(=O)c1C(F)(F)F [Example 690, (S)-5-((1-Methoxy-3-(3-(4-(5-methylpyrimidin-2-yl)piperazin-1-yl)-3-oxopropoxy)propan-2-yl)amino)-4-(trifluoromethyl)pyridazin-3(2H)-one] | < 0.1 µM
3 | COC[C@@H](COCCC(=O)N1CCN(c2ncc(C(F)(F)F)cn2)CC1)Sc1cn[nH]c(=O)c1C(F)(F)F [Example 691, (S)-5-((1-Methoxy-3-(3-oxo-3-(4-(5-(trifluoromethyl)pyrimidin-2-yl)piperazin-1-yl)propoxy)propan-2-yl)thio)-4-(trifluoromethyl)pyridazin-3(2H)-one] | < 0.1 µM
4 | COC[C@@H](COCCC(=O)N1CCN(c2cnc(Cl)cn2)CC1)Nc1cn[nH]c(=O)c1Br [Example 693, (S)-4-Bromo-5-((1-(3-(4-(5-chloropyrazin-2-yl)piperazin-1-yl)-3-oxopropoxy)-3-methoxypropan-2-yl)amino)pyridazin-3(2H)-one] | < 0.1 µM
5 | COC[C@@H](COCCC(=O)N1CCN(c2cnc(C)cn2)CC1)Nc1cn[nH]c(=O)c1C(F)(F)F [Example 695, (S)-5-((1-Methoxy-3-(3-(4-(5-methylpyrazin-2-yl)piperazin-1-yl)-3-oxopropoxy)propan-2-yl)amino)-4-(trifluoromethyl)pyridazin-3(2H)-one] | < 0.1 µM
6 | COC[C@@H](COCCC(=O)N1CCN(c2cnc(Cl)cn2)CC1)Oc1cn[nH]c(=O)c1C(F)(F)F [Example 696, (S)-5-((1-(3-(4-(5-Chloropyrazin-2-yl)piperazin-1-yl)-3-oxopropoxy)-3-methoxypropan-2-yl)oxy)-4-(trifluoromethyl)pyridazin-3(2H)-one] | < 0.1 µM
7 | COC[C@H](COCCC(=O)N1CCN(c2cnc(Cl)cn2)CC1)Oc1cn[nH]c(=O)c1C(F)(F)F [Example 697, (R)-5-((1-(3-(4-(5-Chloropyrazin-2-yl)piperazin-1-yl)-3-oxopropoxy)-3-methoxypropan-2-yl)oxy)-4-(trifluoromethyl)pyridazin-3(2H)-one] | 0.1 to 1 µM
8 | CO[C@@H](C)[C@@H](COCCC(=O)N1CCN(c2ncc(C(F)(F)F)cn2)CC1)Nc1cn[nH]c(=O)c1C(F)(F)F [Example 698, 5-(((2R,3S)-3-Methoxy-1-(3-oxo-3-(4-(5-(trifluoromethyl)pyrimidin-2-yl)piperazin-1-yl)propoxy)butan-2-yl)amino)-4-(trifluoromethyl)pyridazin-3(2H)-one] | < 0.1 µM
9 | CO[C@H](C)[C@@H](COCCC(=O)N1CCN(c2ncc(C(F)(F)F)cn2)CC1)Nc1cn[nH]c(=O)c1C(F)(F)F [Example 699, 5-(((2R,3R)-3-Methoxy-1-(3-oxo-3-(4-(5-(trifluoromethyl)pyrimidin-2-yl)piperazin-1-yl)propoxy)butan-2-yl)amino)-4-(trifluoromethyl)pyridazin-3(2H)-one] | < 0.1 µM
10 | C[C@@H](COCCC(=O)N1CCN(c2ncc(C(F)(F)F)cn2)CC1)Sc1cn[nH]c(=O)c1Br [Example 700, (S)-4-Bromo-5-((1-(3-oxo-3-(4-(5-(trifluoromethyl)pyrimidin-2-yl)piperazin-1-yl)propoxy)propan-2-yl)thio)pyridazin-3(2H)-one] | < 0.1 µM
11 | C[C@@H](COCCC(=O)N1CCN(c2ncc(C(F)(F)F)cn2)CC1)Sc1cn[nH]c(=O)c1Cl [Example 701, (S)-4-Chloro-5-((1-(3-oxo-3-(4-(5-(trifluoromethyl)pyrimidin-2-yl)piperazin-1-yl)propoxy)propan-2-yl)thio)pyridazin-3(2H)-one] | < 0.1 µM

— patent US10550105B2 (Ribon Therapeutics Inc., priority 2018, dated 2020)
